According to ChEMBL document CHEMBL5113404, “Design, synthesis and biological evaluation of new parbendazole derivatives for the treatment of HNSCC” (Eur J Med Chem, 2022):
One block for each compound: values may come before it. Calls of active or inactive are those of the source. The rule behind the calls is not given here.

Legend:
[1] = Antiproliferative activity against human HN-6 cells assessed as cell growth inhibition incubated for 72 hrs by CCK-8 assay; type: functional, cell-based; settings: HN-6, 72 h
Tubulin (Homo sapiens) = Tubulin (Homo sapiens) (UniProt P68371+Q9H4B7+P0DPH7+P68366+Q13509+Q71U36+P04350+Q3ZCM7+P07437+P68363+Q9BQE3+Q6PEY2+Q13885+Q9BVA1+Q9BUF5); assay: Inhibition of tubulin polymerization (unknown origin) at 20 micromol/L by fluorescence based analysis; type: protein-complex assay; settings: dose 20.0 µmol/L
CAL-27 = assay: Antiproliferative activity against human CAL-27 cells assessed as cell growth inhibition incubated for 72 hrs by CCK-8 assay; type: functional, cell-based; settings: CAL-27, 72 h
FaDu = assay: Antiproliferative activity against human FaDu cells assessed as cell growth inhibition incubated for 72 hrs by CCK-8 assay; type: functional, cell-based
Tubulin = assay: Inhibition of tubulin polymerization (unknown origin) by fluorescence based analysis; type: protein-complex assay, Homo sapiens
HN-6 [2] = assay: Induction of cell morphological changes in human HN-6 cells assessed as decrease in tubulin network around nucleus at 100 nmol/L incubated for 24 hrs by DAPI staining based confocal microscopy analysis; type: functional
[3] = Antimigratory activity in human HN-6 cells assessed as inhibition of cell migration at 0.1 micromol/L measured after 24 hrs by scratch wound assay based fluorescence microscope analysis; type: functional; settings: HN-6, 24 h, dose 0.1 µmol/L
HN-6 [4] = assay: Inhibition of cell invasion in human HN-6 cells at 200 to 500 nmol/L incubated for 24 hrs by crystal violet staining based transwell assay; type: functional; settings: dose 200-500 nmol/L
[5] = Induction of apoptosis in human HN-6 cells assessed as viable cells at 0.1 micromol/L incubated for 24 hrs by Annexin-V/FITC-PI staining based flow cytometry analysis (reference value: 97.26%); type: functional; settings: HN-6, 24 h, dose 0.1 µmol/L, read-out: Activity
[6] = Induction of apoptosis in human HN-6 cells assessed as early apoptotic cells at 0.1 micromol/L incubated for 24 hrs by Annexin-V/FITC-PI staining based flow cytometry analysis (reference value: 2.04%); type: functional; settings: dose 0.1 µmol/L, at 0.1 µM
[7] = Induction of apoptosis in human HN-6 cells assessed as late apoptotic cells at 0.1 micromol/L incubated for 24 hrs by Annexin-V/FITC-PI staining based flow cytometry analysis (reference value: 8.81%); type: functional; settings: dose 0.1 µmol/L, at 0.1 µM
[8] = Induction of apoptosis in human HN-6 cells assessed as necrotic cells at 0.1 micromol/L incubated for 24 hrs by Annexin-V/FITC-PI staining based flow cytometry analysis (reference value: 2.08%); type: functional; settings: dose 0.1 µmol/L, at 0.1 µM
[9] = Induction of apoptosis in human HN-6 cells assessed as viable cells at 1 micromol/L incubated for 24 hrs by Annexin-V/FITC-PI staining based flow cytometry analysis (reference value: 97.26%); type: functional; settings: HN-6, 24 h, dose 1 µmol/L, read-out: Activity
[10] = Induction of apoptosis in human HN-6 cells assessed as early apoptotic cells at 1 micromol/L incubated for 24 hrs by Annexin-V/FITC-PI staining based flow cytometry analysis (reference value: 2.04%); type: functional; settings: dose 1 µmol/L, at 1 µM
[11] = Induction of apoptosis in human HN-6 cells assessed as late apoptotic cells at 1 micromol/L incubated for 24 hrs by Annexin-V/FITC-PI staining based flow cytometry analysis (reference value: 8.81%); type: functional; settings: dose 1 µmol/L, at 1 µM
[12] = Induction of apoptosis in human HN-6 cells assessed as necrotic cells at 1 micromol/L incubated for 24 hrs by Annexin-V/FITC-PI staining based flow cytometry analysis (reference value: 2.08%); type: functional; settings: dose 1 µmol/L, at 1 µM
[13] = Induction of cell cycle arrest in human HN-6 cells assessed as accumulation of cells at G1 phase at 0.1 micromol/L incubated for 24 hrs by PI staining based flow cytometry analysi (reference value: 45.33%); type: functional; settings: dose 0.1 µmol/L, at 0.1 µM
[14] = Induction of cell cycle arrest in human HN-6 cells assessed as accumulation of cells at S phase at 0.1 micromol/L incubated for 24 hrs by PI staining based flow cytometry analysi (reference value: 32.12%); type: functional; settings: dose 0.1 µmol/L, at 0.1 µM
[15] = Induction of cell cycle arrest in human HN-6 cells assessed as accumulation of cells at S phase at 0.1 micromol/L incubated for 24 hrs by PI staining based flow cytometry analysi (reference value: 31.19%); type: functional; settings: dose 0.1 µmol/L, at 0.1 µM
[16] = Cytotoxicity against human HFF-1 clls assessed as reduction in cell viability incubated for 72 hrs by CCK-8 assay; type: toxicity, cell-based; settings: HFF-1 cells
[17] = Acute toxicity in Kunming mouse assessed as adverse effect at 1 g/Kg,IG after 15 days of administration; settings: in vivo, po, 1000 mg/kg, 360 h, time 15 day
[18] = Acute toxicity in Kunming mouse assessed as death at 1 g/Kg,IG after 15 days of administration; settings: in vivo, po, 1000 mg/kg, 360 h, time 15 day
[19] = Acute toxicity in IG dosed Kunming mouse assessed as lethal dose after 15 days of administration; type: organism-based; settings: in vivo, po, time 15 day
[20] = Half life in rat at 100 mg/kg,IG measured upto 24 hrs by HPLC analysis; type: ADME, organism-based; settings: in vivo, po
[21] = Tmax in rat at 100 mg/kg,IG measured upto 24 hrs by HPLC analysis; type: ADME, organism-based; settings: in vivo, po
[22] = Cmax in rat at 100 mg/kg,IG measured upto 24 hrs by HPLC analysis; type: ADME, organism-based; design: dose 100 mg/kg, time < 24 hrs, route ig; settings: in vivo, po
[23] = AUC (0 to t) in rat at 100 mg/kg,IG measured upto 24 hrs by HPLC analysis; type: ADME, organism-based; design: dose 100 mg/kg, time < 24 hrs, route ig; settings: in vivo, po

inhibition (Tubulin (Homo sapiens)): 4.9%
SMILES: CCCCc1ccc2nc(NC(=O)Cc3ccccc3)[nH]c2c1
IC50 [1]: > 2000 nM

inhibition (Tubulin (Homo sapiens)): 0.85%
SMILES: CC(C)OC(=O)Nc1nc2ccc(F)cc2[nH]1
IC50 [1]: 1470 nM

inhibition (Tubulin (Homo sapiens)): 2.99%
SMILES: CCCCc1ccc2nc(NC(=O)NCCC)[nH]c2c1
IC50 [1]: 549 nM

inhibition (Tubulin (Homo sapiens)): 0%
SMILES: CCCCCCOC(=O)Nc1nc2ccc(CCCC)cc2[nH]1
IC50 [1]: > 2000 nM

inhibition (Tubulin (Homo sapiens)): 0%
SMILES: CCCCc1ccc2nc(NC(=O)OCCCl)[nH]c2c1
IC50 [1]: > 2000 nM

SMILES: CCCCc1ccc2[nH]c(NC(=O)OC)nc2c1 [PARBENDAZOLE]
IC50 [1]: 102 nM | IC50 (CAL-27): 173 nM | IC50 (FaDu; read-out: IC50): 160 nM | inhibition (Tubulin (Homo sapiens)): 76.7% | IC50 (Tubulin): 9550 nM | Activity (HN-6 [2]): Active | inhibition at 0.1 µM [3]: 12.8% | inhibition (HN-6 [4]): Active | viability at 0.1 µM [5]: 60.8% | Activity [6]: 13.03% | Activity [7]: 21.71% | Activity [8]: 4.46% | viability at 1 µM [9]: 51.8% | Activity [10]: 16.34% | Activity [11]: 25.96% | Activity [12]: 5.94% | Activity [13]: 13.56% | Activity [14]: 16.02% | Activity [15]: 69.09% | IC50 at 72 h [16]: > 20000 nM | Activity [17]: Non-Toxic | Activity [18]: Non-Toxic | LD50 at 360 h [19]: > 1000 mg/kg | half-life [20]: 2.16 h | Tmax [21]: 4 h | Cmax [22]: 141 ng/mL | AUC(0-t) at 24 h [23]: 403 ng·h/mL

inhibition (Tubulin (Homo sapiens)): 100% | IC50 (Tubulin): 4400 nM
SMILES: CCCCc1ccc2nc(NC(=O)C3CCOCC3)[nH]c2c1
IC50 [1]: 1180 nM

inhibition (Tubulin (Homo sapiens)): 8.4%
SMILES: C=CCNC(=O)Nc1nc2ccc(CCCC)cc2[nH]1
IC50 [1]: 392 nM | IC50 (CAL-27): 216 nM | IC50 (FaDu; read-out: IC50): 282 nM

inhibition (Tubulin (Homo sapiens)): 12.5%
SMILES: CCCCCCNC(=O)Nc1nc2ccc(CCCC)cc2[nH]1
IC50 [1]: 1400 nM

inhibition (Tubulin (Homo sapiens)): 9.96%
SMILES: CCCCc1ccc2nc(NC(=O)OCC(CC)CCCC)[nH]c2c1 (stereo unspecified)
IC50 [1]: > 2000 nM

inhibition (Tubulin (Homo sapiens)): 57.7% | IC50 (Tubulin): 16200 nM
SMILES: CCCCc1ccc2nc(NC(=O)c3ccco3)[nH]c2c1
IC50 [1]: 349 nM

inhibition (Tubulin (Homo sapiens)): 8.26%
SMILES: CCCCc1ccc2nc(NC(=O)NC3CCCCC3)[nH]c2c1
IC50 [1]: 967 nM

inhibition (Tubulin (Homo sapiens)): 9.79%
SMILES: CCCCc1ccc2nc(NC(=O)NC(C)(C)C)[nH]c2c1
IC50 [1]: > 2000 nM

SMILES: COc1cc2c(c(OC)c1OC)-c1ccc(OC)c(=O)cc1[C@@H](NC(C)=O)CC2 [COLCHICINE]
IC50 [1]: 19.5 nM | IC50 (CAL-27): 37.5 nM | IC50 (FaDu): 22.8 nM

inhibition (Tubulin (Homo sapiens)): 9.65%
SMILES: CCCCc1ccc2nc(NC(=O)NC(C)C)[nH]c2c1
IC50 [1]: 856 nM

inhibition (Tubulin (Homo sapiens)): 38.7%
SMILES: CCCCc1ccc2nc(NC(=O)NCCc3ccccc3)[nH]c2c1
IC50 [1]: 429 nM | IC50 (CAL-27): 499 nM | IC50 (FaDu; read-out: IC50): 775 nM

inhibition (Tubulin (Homo sapiens)): 100% | IC50 (Tubulin): 6810 nM
SMILES: CCCCCc1ccc2nc(NC(=O)OC(C)C)[nH]c2c1
IC50 [1]: 170 nM | IC50 (CAL-27): 312 nM | IC50 (FaDu; read-out: IC50): 228 nM

inhibition (Tubulin (Homo sapiens)): 0%
SMILES: CCCCc1ccc2nc(NC(=O)NCCOC(=O)C(C)C)[nH]c2c1
IC50 [1]: 1590 nM
